The text below walks through data of patent US10273236B2, “Macrocyclic factor XIa inhibitors bearing heterocyclic groups” (Bristol-Myers Squibb Company, priority 2014, dated 2019).

Test [1] deals with T1, purified human Factor XIa (Homo sapiens, UniProt P03951).
T1 construct: purchased Haematologic Technologies
Description: Factor XIa inhibition assay, chromogenic substrate S-2366 (Ki). The test is classed as biochemical. As for the experimental part:
(§1) The effectiveness of compounds of the present invention as inhibitors of the coagulation Factors XIa, VIIa, IXa, Xa, XIIa, plasma kallikrein or thrombin, can be determined using a relevant purified serine protease, respectively, and an appropriate synthetic substrate. The rate of hydrolysis of the chromogenic or fluorogenic substrate by the relevant serine protease was measured both in the absence and presence of compounds of the present invention. […] A decrease in the rate of absorbance or fluorescence change in the presence of inhibitor is indicative of enzyme inhibition. Such methods are known to one skilled in the art. The results of this assay are expressed as the inhibitory constant, Ki.
Factor XIa determinations were made in 50 mM HEPES buffer at pH 7.4 containing 145 mM NaCl, 5 mM KCl, and 0.1% PEG 8000 (polyethylene glycol; JT Baker or Fisher Scientific). Determinations were made using purified human Factor XIa at a final concentration of 25-200 pM (Haematologic Technologies) and the synthetic substrate S-2366 (pyroGlu-Pro-Arg-pNA; Chromogenix or AnaSpec) at a concentration of 0.0002-0.001 M.
(§2) Values of Ki were determined by allowing the protease to react with the substrate in the presence of the inhibitor.
(§3) Reactions were allowed to go for periods of 20-180 minutes (depending on the protease) and the velocities (rate of absorbance or fluorescence change versus time) were measured.
(§4) The following relationships were used to calculate Ki values: (Vmax*S)/(Km+S) (vo−vs)/vs=I/(Ki(1+S/Km)) for a competitive inhibitor with one binding site; or vs/vo=A+((B−A)/1+((IC50/(I)^n))); and Ki=IC50/(1+S/Km) for a competitive inhibitor where: […]

Test [2] has as its target T2, purified human plasma kallikrein (Homo sapiens, UniProt P03952).
T2 construct: Plasma prekallikrein is a zymogen of a trypsin-like serine protease; purchased Enzyme Research Laboratories
Nature of the test: Plasma kallikrein inhibition assay, chromogenic substrate S-2302 (Ki). The class given is biochemical. How it is done: as §1
Plasma kallikrein determinations were made in 0.1 M sodium phosphate buffer at a pH of 7.5 containing 0.1-0.2 M sodium chloride and 0.5% PEG 8000. Determinations were made using purified human plasma kallikrein (Enzyme Research Laboratories) at a final assay concentration of 200 pM and the synthetic substrate S-2302 (H-(D)-Pro-Phe-Arg-pNA; Chromogenix) at a concentration of 0.00008-0.0004 M.
as §2, §3, §4

Structures can show the parent of a compound that is named as a salt.

T1 sequence (P03951 388-625 limits assumed): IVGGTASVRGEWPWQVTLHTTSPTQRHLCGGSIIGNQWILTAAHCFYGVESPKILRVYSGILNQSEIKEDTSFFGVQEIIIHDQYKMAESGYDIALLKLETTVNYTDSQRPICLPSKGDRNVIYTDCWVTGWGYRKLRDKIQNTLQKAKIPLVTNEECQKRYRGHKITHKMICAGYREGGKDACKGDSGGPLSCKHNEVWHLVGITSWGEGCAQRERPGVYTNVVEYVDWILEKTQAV
T1 sequence (P03951 19-387 partner limits assumed): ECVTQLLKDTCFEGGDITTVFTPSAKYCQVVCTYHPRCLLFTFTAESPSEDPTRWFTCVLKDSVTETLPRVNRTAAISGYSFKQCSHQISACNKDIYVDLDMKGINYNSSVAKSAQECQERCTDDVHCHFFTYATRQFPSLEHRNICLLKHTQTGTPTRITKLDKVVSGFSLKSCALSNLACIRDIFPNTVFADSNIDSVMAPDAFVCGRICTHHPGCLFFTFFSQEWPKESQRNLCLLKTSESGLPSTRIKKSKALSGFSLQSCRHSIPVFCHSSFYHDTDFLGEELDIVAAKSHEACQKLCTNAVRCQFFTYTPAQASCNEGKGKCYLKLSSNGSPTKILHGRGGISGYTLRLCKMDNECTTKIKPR
T2 sequence (P03952 391-638 limits assumed): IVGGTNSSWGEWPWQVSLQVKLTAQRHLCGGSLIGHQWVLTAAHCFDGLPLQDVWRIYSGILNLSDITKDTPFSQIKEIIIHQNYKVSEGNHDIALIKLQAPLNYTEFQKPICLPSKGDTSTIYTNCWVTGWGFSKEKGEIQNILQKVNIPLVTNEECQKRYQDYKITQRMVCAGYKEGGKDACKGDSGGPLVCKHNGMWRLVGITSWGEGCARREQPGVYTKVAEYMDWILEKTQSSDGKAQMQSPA
T2 sequence (P03952 20-390 partner limits assumed): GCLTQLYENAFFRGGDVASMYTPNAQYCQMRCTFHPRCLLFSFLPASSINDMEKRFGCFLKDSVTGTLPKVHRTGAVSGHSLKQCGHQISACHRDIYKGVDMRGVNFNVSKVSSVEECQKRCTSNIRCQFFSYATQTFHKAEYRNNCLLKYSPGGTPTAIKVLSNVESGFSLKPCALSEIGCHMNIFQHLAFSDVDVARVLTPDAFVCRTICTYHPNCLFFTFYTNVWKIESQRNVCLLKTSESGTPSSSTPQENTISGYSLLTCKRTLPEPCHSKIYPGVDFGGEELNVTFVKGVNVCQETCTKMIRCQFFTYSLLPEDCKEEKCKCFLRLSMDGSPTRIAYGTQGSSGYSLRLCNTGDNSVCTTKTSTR

With `C[C@@H]1CCC[C@H](N2CCC(c3cc(Cl)ccc3-n3cc(Cl)nn3)=CC2=O)c2cc(ccn2)-c2c(cnn2C2CC2(F)F)NC1=O` (stereo partly drawn) [Example 56, (9R,13S)-13-{4-[5-chloro-2-(4-chloro-1H-1,2,3-triazol-1-yl)phenyl]-6-oxo-1,2,3,6-tetrahydropyridin-1-yl}-3-(2,2-difluorocyclopropyl)-9-methyl-3,4,7,15-tetraazatricyclo[12.3.1.0^2,6]octadeca-1(18),2(6),4,14,16-pentaen-8-one], the inhibition constant Ki was 0.36 nM in test [1] and 30 nM in test [2].

On to `C[C@@H]1CCC[C@H](N2CCC(c3cc(Cl)ccc3-n3cc(Cl)nn3)=CC2=O)c2cc(ccn2)-c2c(cnn2CC(F)F)NC1=O` [Example 52, (9R,13S)-13-{4-[5-chloro-2-(4-chloro-1H-1,2,3-triazol-1-yl)phenyl]-6-oxo-1,2,3,6-tetrahydropyridin-1-yl}-3-(2,2-difluoroethyl)-9-methyl-3,4,7,15-tetraazatricyclo[12.3.1.0^2,6]octadeca-1(18),2(6),4,14,16-pentaen-8-one], for which the results for the Ki in test [1] and in test [2] were 0.76 nM and 22 nM, respectively.

For `C[C@@H]1CCC[C@H](N2CCC(c3c(-c4cnn(C(F)F)c4)ccc(Cl)c3F)=CC2=O)c2cc(ccn2)-c2c(cnn2C)NC1=O` [Example 41, (9R,13S)-13-(4-{3-chloro-6-[1-(difluoromethyl)-1H-pyrazol-4-yl]-2-fluorophenyl}-6-oxo-1,2,3,6-tetrahydropyridin-1-yl)-3,9-dimethyl-3,4,7,15-tetraazatricyclo[12.3.1.0^2,6]octadeca-1(18),2(6),4,14,16-pentaen-8-one], the Ki in test [1] was 1 nM; in test [2] it was 34 nM.

On to `C[C@@H]1CCC[C@H](N2CCC(c3cc(Cl)ccc3-n3cc(Cl)nn3)=CC2=O)c2cc(F)cc(c2)-c2c(cnn2C)NC1=O` [Example 59, (9R,13S)-13-{4-[5-chloro-2-(4-chloro-1H-1,2,3-triazol-1-yl)phenyl]-6-oxo-1,2,3,6-tetrahydropyridin-1-yl}-16-fluoro-3,9-dimethyl-3,4,7-triazatricyclo[12.3.1.0^2,6]octadeca-1(18),2(6),4,14,16-pentaen-8-one], for which the Ki was 0.1 nM in test [1] and 4 nM in test [2].

`C[C@@H]1CCC[C@H](N2CCC(c3cc(Cl)ccc3-n3cc(Cl)nn3)=CC2=O)c2cccc(c2)-c2c(cnn2C)NC1=O` [Example 48, (9R,13S)-13-{4-[5-chloro-2-(4-chloro-1H-1,2,3-triazol-1-yl)phenyl]-6-oxo-1,2,3,6-tetrahydropyridin-1-yl}-3,9-dimethyl-3,4,7-triazatricyclo[12.3.1.0^2,6]octadeca-1(18),2(6),4,14,16-pentaen-8-one]: the results for the Ki in test [1] and in test [2] were 0.13 nM and 5.5 nM, respectively.

With `C[C@H]1C(=O)Nc2cnn(C)c2-c2ccnc(c2)[C@@H](n2ccc(-c3c(C(F)(F)F)ccc(Cl)c3F)cc2=O)CCC1F` (stereo partly drawn) [Example 28, (9S,13S)-13-{4-[3-chloro-2-fluoro-6-(trifluoromethyl)phenyl]-2-oxo-1,2-dihydropyridin-1-yl}-10-fluoro-3,9-dimethyl-3,4,7,15-tetraazatricyclo[12.3.1.0^2,6]octadeca-1(18),2(6),4,14,16-pentaen-8-one trifluoroacetate], the figures for the inhibition constant Ki in test [1] and in test [2] were 3 nM and 25 nM, respectively.

In the case of `C[C@@H]1CCC[C@H](N2CCC(c3c(C#N)ccc(Cl)c3F)=CC2=O)c2cc(ccn2)-c2c(cnn2C)NC1=O` [Example 39, 4-chloro-2-{1-[(9R,13S)-3,9-dimethyl-8-oxo-3,4,7,15-tetraazatricyclo[12.3.1.0^2,6]octadeca-1(18),2(6),4,14,16-pentaen-13-yl]-6-oxo-1,2,3,6-tetrahydropyridin-4-yl}-3-fluorobenzonitrile], the results for the Ki in test [1] and in test [2] were 1.1 nM and 120 nM, respectively.

`C[C@@H]1CCC[C@H](N2CCC(c3cc(Cl)ccc3-c3cnn(C(F)F)c3)=CC2=O)c2cc(ccn2)-c2c(cnn2C)NC1=O` [Example 38, (9R,13S)-13-(4-{5-chloro-2-[1-(difluoromethyl)-1H-pyrazol-4-yl]phenyl}-6-oxo-1,2,3,6-tetrahydropyridin-1-yl)-3,9-dimethyl-3,4,7,15-tetraazatricyclo[12.3.1.0^2,6]octadeca-1(18),2(6),4,14,16-pentaen-8-one]: the Ki in test [1] is 1.8 nM; in test [2], 120 nM.

For the compound `C[C@@H]1CCC[C@H](N2CCC(c3cc(Cl)ccc3-n3cc(Cl)nn3)=CC2=O)c2cccc(n2)-c2c(cnn2C)NC1=O` [Example 43, (9R,13S)-13-{4-[5-chloro-2-(4-chloro-1H-1,2,3-triazol-1-yl)phenyl]-6-oxo-1,2,3,6-tetrahydropyridin-1-yl}-3,9-dimethyl-3,4,7,18-tetraazatricyclo[12.3.1.0^2,6]octadeca-1(18),2(6),4,14,16-pentaen-8-one], the Ki stood at 4.1 nM in test [1] and 110 nM in test [2].

For the compound `C[C@@H]1CCC[C@H](N2CCC(c3c(F)ccc(Cl)c3F)=CC2=O)c2cc(ccn2)-c2c(cnn2C)NC1=O` [Example 2, (9R,13S)-13-[4-(3-chloro-2,6-difluorophenyl)-6-oxo-1,2,3,6-tetrahydropyridin-1-yl]-3,9-dimethyl-3,4,7,15-tetraazatricyclo[12.3.1.0^2,6]octadeca-1(18),2(6),4,14,16-pentaen-8-one], the Ki in test [1] turned out to be 10 nM; in test [2], 30 nM.

As to `[2H]C([2H])([2H])n1ncc2c1-c1ccnc(c1)[C@@H](N1CCC(c3c(C(F)F)ccc(Cl)c3F)=CC1=O)CCC[C@@H](C)C(=O)N2` [Example 29, (9R,13S)-13-{4-[3-chloro-6-(difluoromethyl)-2-fluorophenyl]-6-oxo-1,2,3,6-tetrahydropyridin-1-yl}-3-(^2H3)methyl-9-methyl-3,4,7,15-tetraazatricyclo[12.3.1.0^2,6]octadeca-1(18),2(6),4,14,16-pentaen-8-one], the Ki in test [1] was 0.6 nM; in test [2] it was 6 nM.

`[2H]C([2H])([2H])n1ncc2c1-c1ccnc(c1)[C@@H](n1ccc(-c3cc(Cl)ccc3-n3cc(C(F)(F)F)nn3)cc1=O)CCC[C@@H](C)C(=O)N2` [Example 62, (9R,13S)-13-(4-{5-Chloro-2-[4-(trifluoromethyl)-1H-1,2,3-triazol-1-yl]phenyl}-2-oxo-1,2-dihydropyridin-1-yl)-3-(^2H3)methyl-9-methyl-3,4,7,15-tetraazatricyclo[12.3.1.0^2,6]octadeca-1(18),2(6),4,14,16-pentaen-8-one, trifluoroacetate]: the figures for the Ki in test [1] and in test [2] were 0.1 nM and 6 nM, respectively.

For `C[C@H]1C(=O)Nc2cnn(C)c2-c2cc(F)cc(c2)[C@@H](N2CCC(c3cc(Cl)ccc3-n3cc(Cl)nn3)=CC2=O)CCC1F` (stereo partly drawn) [Example 50, (9S,13S)-13-{4-[5-chloro-2-(4-chloro-1H-1,2,3-triazol-1-yl)phenyl]-6-oxo-1,2,3,6-tetrahydropyridin-1-yl}-10,16-difluoro-3,9-dimethyl-3,4,7-triazatricyclo[12.3.1.0^2,6]octadeca-1(18),2(6),4,14,16-pentaen-8-one], the inhibitory constant (Ki) turned out to be 0.1 nM in test [1] and 8 nM in test [2].

For `C[C@@H]1CCC[C@H](N2CCC(c3c(C(F)(F)F)ccc(Cl)c3F)=CC2=O)c2cc(ccn2)-c2c(cnn2C)NC1=O` [Example 6], the Ki in test [1] was 1.7 nM; in test [2] it was 7 nM.

As for `C[C@@H]1CCC[C@H](N2CCC(c3c(Br)ccc(Cl)c3F)=CC2=O)c2cc(ccn2)-c2c(cnn2C)NC1=O` [Example 36, (9R,13S)-13-[4-(6-bromo-3-chloro-2-fluorophenyl)-6-oxo-1,2,3,6-tetrahydropyridin-1-yl]-3,9-dimethyl-3,4,7,15-tetraazatricyclo[12.3.1.0^2,6]octadeca-1(18),2(6),4,14,16-pentaen-8-one], the figures for the Ki in test [1] and in test [2] were 1.7 nM and 5 nM, respectively.

As to `C[C@@H]1CCC[C@H](N2CCC(c3cc(Cl)ccc3-n3cc(Cl)nn3)=CC2=O)c2cc(ccn2)-c2[nH]ncc2NC1=O` [Example 58, (9R,13S)-13-{4-[5-chloro-2-(4-chloro-1H-1,2,3-triazol-1-yl)phenyl]-6-oxo-1,2,3,6-tetrahydropyridin-1-yl}-9-methyl-3,4,7,15-tetraazatricyclo[12.3.1.0^2,6]octadeca-1(18),2(6),4,14,16-pentaen-8-one], the inhibition constant (Ki) in test [1] stood at 2.4 nM; in test [2] it was 46 nM.

Turning to `CC(=O)c1ccc(Cl)c(F)c1C1=CC(=O)N([C@H]2CCC[C@@H](C)C(=O)Nc3cnn(C)c3-c3ccnc2c3)CC1` [Example 46, (9R,13S)-13-[4-(6-acetyl-3-chloro-2-fluorophenyl)-6-oxo-1,2,3,6-tetrahydropyridin-1-yl]-3,9-dimethyl-3,4,7,15-tetraazatricyclo[12.3.1.0^2,6]octadeca-1(18),2(6),4,14,16-pentaen-8-one], the Ki in test [1] was found to be 3.5 nM; in test [2], 46 nM.

As usually defined, the Ki is the dissociation constant of the complex between target and ligand, obtained from inhibition or displacement.
